Results as given in patent publication US8598161B2, “Compounds for the reduction of beta-amyloid production” (Bristol-Myers Squibb Company, priority 2011, dated 2013).

System: Aβ42 production in H4 APP751 SWE clone 8.20 cells
Experiment: Cellular assay for inhibition of Aβ1-42 production
Format: cell-based
Details: H4 cells stably transfected with APP751 Swedish mutation (clone 8.20), 19 h incubation
Method: H4 cells stably transfected with APP751 containing the Swedish mutation (H4 APP751 SWE clone 8.20, developed at BMS) were maintained in log phase through twice weekly passage at a 1:20 split. […] Following incubation for 19 h in 5% CO2 at 37° C., plates were briefly centrifuged (1000 rpm, 5 min). A 10 μl aliquot from each well was transferred to a second assay plate (Costar 3709) for Aβ40 measurements. Antibody cocktails were freshly prepared by dilution into 40 mM Tris-HCl (pH 7.4) with 0.2% BSA and added to assay plates. For Aβ42 measurements, antibodies specific for the Aβ42 neoepitope (565, developed at BMS; conjugated to the Wallac reagent (Perkin Elmer)) and the N-terminal sequence of Aβ peptide (26D6, developed at SIBIA; conjugated to APC (Perkin Elmer)) were mixed and 20 μl of the mixture was added to each well of the incubated cell plate yielding a final concentration of 0.8 ng/well 565 and 75 ng/well 26D6. […] Assay plates containing antibodies were sealed with aluminum foil and incubated overnight at 4° C. Signal was determined using a Viewlux counter (Perkin Elmer) and IC50 values determined using curve fitting in CurveMaster (Excel Fit based).

NC1=N[C@@]2(c3cc(NC(=O)c4ccc(F)cn4)ccc3F)OCC[C@H]2CS1 (racemic) [Example 4, (±)-N-(3-((4aR,7aR)-2-amino-4a,5,6,7a-tetrahydro-4H-furo[2,3-d][1,3]thiazin-7a-yl)-4-fluorophenyl)-5-fluoropicolinamide]
IC50: 465 nM

NC1=N[C@@]2(c3cc(NC(=O)c4ccccn4)ccc3F)OCC[C@H]2CS1 (racemic) [Example 5, (±)-N-(3-((4aR,7aR)-2-amino-4a,5,6,7a-tetrahydro-4H-furo[2,3-d][1,3]thiazin-7a-yl)-4-fluorophenyl)picolinamide]
IC50: 856 nM

CC#Cc1cncc(-c2cc([C@@]34N=C(N)SC[C@@H]3CCO4)c(F)cc2F)c1 (racemic) [Example 8, (±)-(4aR,7aR)-7a-(2,4-difluoro-5-(5-(prop-1-ynyl)pyridin-3-yl)phenyl)-4a,5,6,7a-tetrahydro-4H-furo[2,3-d][1,3]thiazin-2-amine]
IC50: 924 nM

NC1=N[C@@]2(c3cc(NC(=O)c4ccc(Cl)cn4)ccc3F)OCC[C@H]2CS1 [Example 2, N-(3-((4aR,7aR)-2-amino-4a,5,6,7a-tetrahydro-4H-furo[2,3-d][1,3]thiazin-7a-yl)-4-fluorophenyl)-5-chloropicolinamide]
IC50: 24 nM

N#Cc1ccc(C(=O)Nc2ccc(F)c([C@@]34N=C(N)SC[C@@H]3CCO4)c2)nc1 [Example 3, N-(3-((4aR,7aR)-2-amino-4a,5,6,7a-tetrahydro-4H-furo[2,3-d][1,3]thiazin-7a-yl)-4-fluorophenyl)-5-cyanopicolinamide]
IC50: 72 nM

NC1=N[C@@]2(c3cc(-c4cncnc4)c(F)cc3F)OCCC[C@H]2CS1 [Example 11, (4aR,8aR)-8a-(2,4-difluoro-5-(pyrimidin-5-yl)phenyl)-4,4a,5,6,7,8a-hexahydropyrano[2,3-d][1,3]thiazin-2-amine]
IC50: 995 nM
